In the experiment the test system is hTERT-immortalized human fibroblasts. Description: MTT assay of nanocontainer formulations, fibroblasts. Particulars: Fibroblast, 48 h treatment, 2c concentration in formulations = 0.1 × COO− concentration. In kind it is cell-based. Here is the method: The MTT assay was carried out on the A549 cell line and non-tumor hTERT-immortalized human fibroblasts for 48 h (Table 2; for cell survival curves, see Supplementary Materials).
Lung adenocarcinoma A549, breast adenocarcinoma MDA-MB-231 and non-tumor fibroblasts immortalized with h-TERT cell lines were obtained from the American Type Culture Collection (Manassas, VA, USA). Cells were routinely propagated in Dulbecco’s modified Eagle’s medium (DMEM) supplemented with 10% fetal bovine serum (HyClone, Logan, UT, USA), 2 mM L-glutamine, 100 U/mL penicillin and 100 μg/mL streptomycin (PanEco, Moscow, Russia) at 37 °C, 5% CO2 in a humidified atmosphere. Cells in the logarithmic phase of growth were used in the experiments.
The cytotoxicity of compounds for human cell lines (A549, MDA-MB-231, non-tumor fibroblasts) was assessed in MTT assays. […]
Cytotoxicity was assessed in a formazan conversion assay (MTT test) after a 48 h exposure. After the completion of drug exposure, 0.5 mg/mL 3-(4,5-dimethylthiazol-2-yl)-2,5-diphenyltetrazolium bromide (MTT reagent) was added to cells for 2 h, the culture medium was removed, cells were resuspended in 100 μL DMSO and the optical densities were measured on a Multiscan FC plate spectrophotometer (Thermo Fisher Scientific, Waltham, MA, USA) at a wavelength of 571 nm. […]

The compound `COc1ccc(N(C)c2nc(C)nc3c2CCCC3)cc1` [Compound 2c, N-(4-methoxyphenyl)-N,2-dimethyl-5,6,7,8-tetrahydroquinazolin-4-amine] had an IC50 of 4.2 ± 0.3 µM.
